The values below come from patent US10711000B2 (Fronthera U.S. Pharmaceuticals LLC, priority 2018, dated 2020).

The test deals with T1, Autotaxin (Homo sapiens, UniProt Q13822).
T1 construct: from tissue; host or cells: pooled human plasma
In words: LPA formation in pooled human plasma (ex vivo autotaxin inhibition). As to conditions: 2 hours incubation. It is filed as biochemical. An outline of the steps:
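Pooled human plasma incubated 2 h with various compound concentrations; LPA 18:2 and 20:4 quantified by LC/MS/MS (negative-ion MRM, LPA17:0 internal standard) after butanol extraction. Inhibition of LPA formation relative to untreated plasma; IC50 by non-linear regression.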

Setting [1] is: LPA 18:2 by LC/MS/MS, read-out: LPA formation (18:2) (IC50).
Setting [2] is: LPA 20:4 by LC/MS/MS, read-out: LPA formation (20:4) (IC50).

pIC50: −log10 of the molar value. Where two headings read alike, the source gives them in different places.

The term pIC50 denotes the IC50 on a negative log10 scale, so that one unit is a factor of ten.

Turning to `CCc1nn2c(C)cc(N3CCC4(CN(C(=O)[C@H]5CCCO5)C4)C3)cc2c1N(C)c1nc(-c2ccc(F)cc2)c(C#N)s1` [Example 49, (R)-2-((2-ethyl-7-methyl-5-(2-(tetrahydrofuran-2-carbonyl)-2,6-diazaspiro[3.4]octan-6-yl)pyrazolo[1,5-a]pyridin-3-yl)(methyl)amino)-4-(4-fluorophenyl)thiazole-5-carbonitrile], the pIC50 is at least 7.00 under setting [1] and at least 7.00 under setting [2].

On to `CCc1nn2c(C)cc(N3CCC4(CCN(C)C4=O)CC3)cc2c1N(C)c1nc(-c2ccc(F)cc2)c(C#N)s1` [Example 50, 2-((2-ethyl-7-methyl-5-(2-methyl-1-oxo-2,8-diazaspiro[4.5]decan-8-yl)pyrazolo[1,5-a]pyridin-3-yl)(methyl)amino)-4-(4-fluorophenyl)thiazole-5-carbonitrile], for which the pIC50 under setting [1] is under 6.00 and the pIC50 under setting [2] is under 6.00.

Regarding `CCc1nn2c(C)cc(N3CCC4(CN(C(=O)[C@H]5CCOC5)C4)C3)cc2c1N(C)c1nc(-c2ccc(F)cc2)c(C#N)s1` [Example 51, (S)-2-((2-ethyl-7-methyl-5-(2-(tetrahydrofuran-3-carbonyl)-2,6-diazaspiro[3.4]octan-6-yl)pyrazolo[1,5-a]pyridin-3-yl)(methyl)amino)-4-(4-fluorophenyl)thiazole-5-carbonitrile], the pIC50 by setting is: under setting [1], at least 7.00; under setting [2], at least 7.00.

Take `CCc1nn2c(C)cc(N3CCC4(CN(C(=O)CO)C4)C3)cc2c1N(C)c1nc(-c2ccc(F)cc2)c(C#N)s1` [Example 52, 2-((2-ethyl-5-(2-(2-hydroxyacetyl)-2,6-diazaspiro[3.4]octan-6-yl)-7-methylpyrazolo[1,5-a]pyridin-3-yl)(methyl)amino)-4-(4-fluorophenyl)thiazole-5-carbonitrile]: the pIC50 was 6.30 to 7.00 under setting [1] and 6.30 to 7.00 under setting [2].

On to `CCc1nn2c(C)cc(N3CC4(CCN(C(=O)C(C)(C)O)C4)C3)cc2c1N(C)c1nc(-c2ccc(F)cc2)c(C#N)s1` [Example 53, 2-((2-ethyl-5-(6-(2-hydroxy-2-methylpropanoyl)-2,6-diazaspiro[3.4]octan-2-yl)-7-methylpyrazolo[1,5-a]pyridin-3-yl)(methyl)amino)-4-(4-fluorophenyl)thiazole-5-carbonitril], for which the pIC50 reads like this: under setting [1], at least 7.00; under setting [2], at least 7.00.

On to `CCc1nn2c(C)cc(N3CCC4(CN(C(=O)C5(O)CC5)C4)C3)cc2c1N(C)c1nc(-c2ccc(F)cc2)c(C#N)s1` [Example 54, 2-((2-ethyl-5-(2-(1-hydroxycyclopropane-1-carbonyl)-2,6-diazaspiro[3.4]octan-6-yl)-7-methylpyrazolo[1,5-a]pyridin-3-yl)(methyl)amino)-4-(4-fluorophenyl)thiazole-5-carbonitrile], for which the pIC50 by setting is: under setting [1], 6.00 to 6.30; under setting [2], 6.00 to 6.30.

Take `CCc1nn2c(C)cc(N3CCC4(CN(CC(O)CO)C4)C3)cc2c1N(C)c1nc(-c2ccc(F)cc2)c(C#N)s1` (stereo not shown) [Example 55, 2-((5-(2-(2,3-dihydroxypropyl)-2,6-diazaspiro[3.4]octan-6-yl)-2-ethyl-7-methylpyrazolo[1,5-a]pyridin-3-yl)(methyl)amino)-4-(4-fluorophenyl)thiazole-5-carbonitrile]: the pIC50 is 6.30 to 7.00 under setting [1] and 6.30 to 7.00 under setting [2].

On to `CCc1nn2c(C)cc(N3CC4(CN(C(=O)C5(O)CCOCC5)C4)C3)cc2c1N(C)c1nc(-c2ccc(F)cc2)c(C#N)s1` [Example 56], for which the pIC50 runs as follows: under setting [1], at least 7.00; under setting [2], at least 7.00.

With `CCc1nn2c(C)cc(N3CC4(CN(C(=O)c5cnco5)C4)C3)cc2c1N(C)c1nc(-c2ccc(F)cc2)c(C#N)s1` [Example 57, 2-((2-ethyl-7-methyl-5-(6-(oxazole-5-carbonyl)-2,6-diazaspiro[3.3]heptan-2-yl)pyrazolo[1,5-a]pyridin-3-yl)(methyl)amino)-4-(4-fluorophenyl)thiazole-5-carbonitrile], the pIC50 was at least 7.00 under setting [1] and at least 7.00 under setting [2].

As for `CCc1nn2c(C)cc(N3CC4(CN(C(=O)C(O)CO)C4)C3)cc2c1N(C)c1nc(-c2ccc(F)cc2)c(C#N)s1` (stereo not shown) [Example 60, 2-((5-(6-(2,3-dihydroxypropanoyl)-2,6-diazaspiro[3.3]heptan-2-yl)-2-ethyl-7-methylpyrazolo[1,5-a]pyridin-3-yl)(methyl)amino)-4-(4-fluorophenyl)thiazole-5-carbonitrile], the pIC50 reads like this: under setting [1], at least 7.00; under setting [2], 6.30 to 7.00.

Consider `CCc1nn2c(C)cc(N3CC4(CN(C(=O)C5(O)CC5)C4)C3)cc2c1N(C)c1nc(-c2ccc(F)cc2)c(C#N)s1` [Example 61, 2-((2-ethyl-5-(6-(1-hydroxycyclopropane-1-carbonyl)-2,6-diazaspiro[3.3]heptan-2-yl)-7-methylpyrazolo[1,5-a]pyridin-3-yl)(methyl)amino)-4-(4-fluorophenyl)thiazole-5-carbonitrile], for which the pIC50 is 6.30 to 7.00 under setting [1] and 6.30 to 7.00 under setting [2].

With `CCc1nn2c(C)cc(N3CC4(CN(C(=O)[C@H](C)O)C4)C3)cc2c1N(C)c1nc(-c2ccc(F)cc2)c(C#N)s1` [Example 62, (S)-2-((2-ethyl-5-(6-(2-hydroxypropanoyl)-2,6-diazaspiro[3.3]heptan-2-yl)-7-methylpyrazolo[1,5-a]pyridin-3-yl)(methyl)amino)-4-(4-fluorophenyl)thiazole-5-carbonitrile], the pIC50 is 6.30 to 7.00 under setting [1] and 6.30 to 7.00 under setting [2].

For `CCc1nn2c(C)cc(N3CC4(CN(C(=O)[C@@H](C)O)C4)C3)cc2c1N(C)c1nc(-c2ccc(F)cc2)c(C#N)s1` [Example 63, (R)-2-((2-ethyl-5-(6-(2-hydroxypropanoyl)-2,6-diazaspiro[3.3]heptan-2-yl)-7-methylpyrazolo[1,5-a]pyridin-3-yl)(methyl)amino)-4-(4-fluorophenyl)thiazole-5-carbonitrile], the pIC50 was 6.30 to 7.00 under setting [1] and 6.30 to 7.00 under setting [2].

For `CCc1nn2c(C)cc(N3CC4C(C3)C4NC(=O)[C@H]3CCOC3)cc2c1N(C)c1nc(-c2ccc(F)cc2)c(C#N)s1` (stereo partly drawn) [Example 64, (3S)—N-(3-(3-((5-cyano-4-(4-fluorophenyl)thiazol-2-yl)(methyl)amino)-2-ethyl-7-methylpyrazolo[1,5-a]pyridin-5-yl)-3-azabicyclo[3.1.0]hexan-6-yl)tetrahydrofuran-3-carboxamide], the pIC50 by setting is: under setting [1], 6.30 to 7.00; under setting [2], 6.30 to 7.00.

With `CCc1nn2c(C)cc(N3CC4(CN(C(=O)c5ccco5)C4)C3)cc2c1N(C)c1nc(-c2ccc(F)cc2)c(C#N)s1` [Example 66, 2-((2-ethyl-5-(6-(furan-2-carbonyl)-2,6-diazaspiro[3.3]heptan-2-yl)-7-methylpyrazolo[1,5-a]pyridin-3-yl)(methyl)amino)-4-(4-fluorophenyl)thiazole-5-carbonitrile], the pIC50 reads like this: under setting [1], at least 7.00; under setting [2], at least 7.00.

On to `CCc1nn2c(C)cc(N3CCC4(CN(C[C@H](O)CO)C4)C3)cc2c1N(C)c1nc(-c2ccc(F)cc2)c(C#N)s1` [Example 68, (S)-2-((5-(2-(2,3-dihydroxypropyl)-2,6-diazaspiro[3.4]octan-6-yl)-2-ethyl-7-methylpyrazolo[1,5-a]pyridin-3-yl)(methyl)amino)-4-(4-fluorophenyl)thiazole-5-carbonitrile], for which the pIC50 runs as follows: under setting [1], 6.30 to 7.00; under setting [2], 6.30 to 7.00.

As for `CCc1nn2c(C)cc(N3CCC4(CN(C[C@@H](O)CO)C4)C3)cc2c1N(C)c1nc(-c2ccc(F)cc2)c(C#N)s1` [Example 69, (R)-2-((5-(2-(2,3-dihydroxypropyl)-2,6-diazaspiro[3.4]octan-6-yl)-2-ethyl-7-methylpyrazolo[1,5-a]pyridin-3-yl)(methyl)amino)-4-(4-fluorophenyl)thiazole-5-carbonitrile], the pIC50 is 6.30 to 7.00 under setting [1] and 6.30 to 7.00 under setting [2].

As to `CCc1nn2c(C)cc(N3CC4(CN(C(=O)c5ccon5)C4)C3)cc2c1N(C)c1nc(-c2ccc(F)cc2)c(C#N)s1` [Example 70, 2-((2-ethyl-5-(6-(isoxazole-3-carbonyl)-2,6-diazaspiro[3.3]heptan-2-yl)-7-methylpyrazolo[1,5-a]pyridin-3-yl)(methyl)amino)-4-(4-fluorophenyl)thiazole-5-carbonitrile], the pIC50 is 6.30 to 7.00 under setting [1] and 6.30 to 7.00 under setting [2].

As to `CCc1nn2c(C)cc(N3CC4(C3)CN(S(C)(=O)=O)C4)cc2c1N(C)c1nc(-c2ccc(F)cc2)c(C#N)s1` [Example 71], the pIC50 by setting is: under setting [1], 6.30 to 7.00; under setting [2], 6.30 to 7.00.

Regarding `CCc1nn2c(C)cc(-c3cnn(C[C@@H](O)CO)c3)cc2c1N(C)c1nc(-c2ccc(F)cc2)c(C#N)s1` [Example 72, (R)-2-((5-(1-(2,3-dihydroxypropyl)-1H-pyrazol-4-yl)-2-ethyl-7-methylpyrazolo[1,5-a]pyridin-3-yl)(methyl)amino)-4-(4-fluorophenyl)thiazole-5-carbonitrile], the pIC50 reads like this: under setting [1], under 6.00; under setting [2], under 6.00.

Regarding `Cc1cc(N2CC3(CN(C(=O)C(C)(C)O)C3)C2)cc2c(N(C)c3nc(-c4ccc(F)cc4)c(C#N)s3)c(C3CC3)nn12` [Example 77, 2-((2-cyclopropyl-5-(6-(2-hydroxy-2-methylpropanoyl)-2,6-diazaspiro[3.3]heptan-2-yl)-7-methylpyrazolo[1,5-a]pyridin-3-yl)(methyl)amino)-4-(4-fluorophenyl)thiazole-5-carbonitrile], the pIC50 reads like this: under setting [1], at least 7.00; under setting [2], at least 7.00.

Consider `Cc1cc(N2CC3(CN(C(=O)[C@H]4CCOC4)C3)C2)cc2c(N(C)c3nc(-c4ccc(F)cc4)c(C#N)s3)c(C3CC3)nn12` [Example 78, (S)-2-((2-cyclopropyl-7-methyl-5-(6-(tetrahydrofuran-3-carbonyl)-2,6-diazaspiro[3.3]heptan-2-yl)pyrazolo[1,5-a]pyridin-3-yl)(methyl)amino)-4-(4-fluorophenyl)thiazole-5-carbonitrile], for which the pIC50 runs as follows: under setting [1], at least 7.00; under setting [2], at least 7.00.

Regarding `Cc1cc(N2CCN(CC(N)=O)CC2)cc2c(N(C)c3nc(-c4ccc(F)cc4)c(C#N)s3)c(C3CC3)nn12` [Example 79], the pIC50 by setting is: under setting [1], 6.00 to 6.30; under setting [2], 6.00 to 6.30.
